Experiments:
Format in all cases: cell-based
[1] = system: β-catenin-TCF transcriptional activity; experiment: β-catenin-TCF transcriptional activity induced by CHIR; conditions: data not shown
Description: The role of β-catenin in human ESC self-renewal has been controversial. […] Our finding that activation of β-catenin can promote human ESC self-renewal or differentiation, and that the respective outcome is dictated by whether β-catenin translocates into the nucleus, provides a rational explanation for earlier, seemingly paradoxical results. […] Some of the contradicted results on the role of β-catenin in human ESC self-renewal, therefore, might be attributable to variations in the subcellular localization of β-catenin under different culture conditions.

[2] = system: β-catenin/TCF-responsive TOPFlash reporter; experiment: TOPFlash reporter assay in H9 human ESCs; conditions: 24 h, added to CHIR
Procedure: (A) TOPFlash™ assay in H9 human ESCs subjected to the indicated treatments for 24 h. Data represent mean±s.d. of three biological replicates. (B) Representative phase contrast and alkaline phosphatase (AP) staining images of H9 human ESCs cultured in the indicated conditions for 3 passages. (C) Phase contrast images of H9 human ESCs cultured in CHIR/XAV or CHIR/IWR-1 for 11 passages. (D) Colony forming efficiency assay of H9 human ESCs cultured in FGF2 or CHIR/IWR-1 conditions. Data represent mean±s.d. of three biological replicates. Right panel: a representative image showing AP staining of colonies formed from H9 human ESCs cultured in either FGF2 or CHIR/IWR-1 condition. (E) Human ESCs cultured in CHIR/IWR-1 for 11 passages were immunostained with the indicated antibodies. (F) Embryoid bodies (EBs) were generated from H9 human ESCs cultured in CHIR/IWR-1 for 11 passages. The outgrowths of EBs were immunostained with the indicated antibodies. (G) H&E staining of teratomas generated from H9 ESCs cultured in CHIR/IWR-1 for 20 passages. (H) Western blot analysis of Axin1 and Axin2 expression in HES3 human ESCs treated with the indicated cytokines/inhibitors for 24 h. (I) Immunofluorescence images of H9 human ESCs (passage 5 in CHIR) overexpressing Flag-tagged Axin2. (J) Representative phase contrast and immunofluorescence images of HES2 human ESCs overexpressing ΔNβ-catenin-ERT2 at passage 5 in basal medium only. These cells were cultured in basal medium only for more than 10 passages and remained morphologically undifferentiated. (K) Phase contrast images of HES2 human ESCs overexpressing ΔNβ-catenin (left panel, passage 2 in basal medium/FGF2) or ΔNβ-catenin/A295W/I296W mutant (right panel, passage 5 in basal medium only). Scale bars, 50 μm (B, C, E-G, and I-K). (L) Model of mouse EpiSC and human ESC self-renewal mediated by β-catenin. In the absence of Wnt or GSK3 inhibitor, a β-catenin destruction complex, containing Axin1, GSK3, and APC is formed, leading to the degradation of β-catenin and differentiation (left). In the presence of Wnt or GSK3 inhibitor, β-catenin is stabilized and can initiate cellular responses related to both self-renewal and differentiation. Stabilized β-catenin induces differentiation when it translocates into the nucleus and binds TCFs to activate downstream targets (middle). Addition of XAV or IWR-1 stabilizes Axin2. […]
(§1) For quantifying relative Oct3/4 enhancer activities, pGL3-Oct4 DE and pGL3-Oct4 PE plasmids (gifts from Hans Schöler's lab) were co-transfected with the Renilla vector, using the Amaxa™ Transfection Kit (Lonza). […] For quantifying relative β-catenin/Tcf transcriptional activity, pGL2-SuperTOP™ plasmid (gift from Randall Moon) was co-transfected with the Renilla vector and assayed accordingly.

[3] = system: β-catenin/TCF-responsive TOPFlash reporter; experiment: TOPFlash reporter assay in mouse EpiSCs; conditions: CD1 mouse EpiSCs, 12 hours, added to CHIR
Procedure: (§2) (A) TOPFlash™ assay in CD1 mouse EpiSCs treated with the indicated inhibitors for 12 hours. Data represent mean±s.d. of three biological replicates. (B) Representative phase contrast images of CD1 mouse EpiSCs cultured in the indicated conditions for 7 days. (C) Western blot analysis of CD1 mouse EpiSCs treated with the indicated inhibitors for 12 h. (D) qRT-PCR analysis of Axin1 and Axin2 mRNA levels in CD1 mouse EpiSCs stably transfected with Axin1 shRNA or Axin2 shRNA. Data represent mean±s.d. of three biological replicates. (E) Colony assay on CD1 mouse EpiSCs stably transfected with scramble, Axin1, or Axin2 shRNAs. Cells were plated onto a 6-well plate at a density of 5,000 cells/well and cultured in CHIR/IWR-1. Colonies were counted 7 days after plating. Data represent the total combined numbers of colonies from two independent experiments in which each shRNA-transfected group was cultured in one well of a 6-well plate. (F) Representative phase contrast images of CD 1 mouse EpiSCs stably transfected with the indicated shRNAs and cultured in CHIR/IWR-1 for 7 days. (G) Western blot analysis of CD1 mouse EpiSCs overexpressing Flag-tagged Axin1 or Axin2. (H) Representative phase contrast images of CD1 mouse EpiSCs overexpressing Axin1 or Axin2 and cultured in CHIR for 7 days. Axin2-overexpressing EpiSCs could be continually passaged in CHIR alone. Scale bars, 50 μm (B, F and H)
Next, we investigated the mechanism by which CHIR/XAV promotes EpiSC self-renewal. By inhibiting GSK3 phosphorylation of β-catenin, CHIR stabilizes β-catenin, which then trans-locates to the nucleus and forms complexes with DNA-binding proteins, including TCFs, to activate transcription (Logan and Nusse, 2004). […]
as §1

Axin1 [4] = experiment: Western blot of Axin1 in mouse EpiSCs; conditions: CD1 mouse EpiSCs treated 12 h
Procedure: as §2
Next, we investigated the mechanism by which CHIR/XAV promotes EpiSC self-renewal. By inhibiting GSK3 phosphorylation of β-catenin, CHIR stabilizes β-catenin, which then trans-locates to the nucleus and forms complexes with DNA-binding proteins, including TCFs, to activate transcription (Logan and Nusse, 2004). […] Axin has two isoforms, Axin1 and Axin2. […] The expression level of Axin2, but not Axin1, was also elevated by CHIR treatment (FIG. 4C), an outcome consistent with previous findings that Axin2 is a direct downstream target of Wnt/β-catenin signaling (Jho et al., 2002). […]

Axin1 [5] = experiment: Western blot of Axin1 in human ESCs; conditions: human ESCs treated 24 h
Procedure: (A) TOPFlash™ assay in H9 human ESCs subjected to the indicated treatments for 24 h. Data represent mean±s.d. of three biological replicates. (B) Representative phase contrast and alkaline phosphatase (AP) staining images of H9 human ESCs cultured in the indicated conditions for 3 passages. (C) Phase contrast images of H9 human ESCs cultured in CHIR/XAV or CHIR/IWR-1 for 11 passages. (D) Colony forming efficiency assay of H9 human ESCs cultured in FGF2 or CHIR/IWR-1 conditions. Data represent mean±s.d. of three biological replicates. Right panel: a representative image showing AP staining of colonies formed from H9 human ESCs cultured in either FGF2 or CHIR/IWR-1 condition. (E) Human ESCs cultured in CHIR/IWR-1 for 11 passages were immunostained with the indicated antibodies. (F) Embryoid bodies (EBs) were generated from H9 human ESCs cultured in CHIR/IWR-1 for 11 passages. The outgrowths of EBs were immunostained with the indicated antibodies. (G) H&E staining of teratomas generated from H9 ESCs cultured in CHIR/IWR-1 for 20 passages. (H) Western blot analysis of Axin1 and Axin2 expression in HES3 human ESCs treated with the indicated cytokines/inhibitors for 24 h. (I) Immunofluorescence images of H9 human ESCs (passage 5 in CHIR) overexpressing Flag-tagged Axin2. […]

Axin2 [6] = experiment: Western blot of Axin2 in human ESCs; conditions: human ESCs treated 24 h
Axin2 [7] = experiment: Western blot of Axin2 in mouse EpiSCs; conditions: CD1 mouse EpiSCs treated 12 h

Compound	effect on β-catenin-TCF transcriptional activity induced by CHIR [1]	effect on TOPFlash activity induced by CHIR [2]	effect on TOPFlash activity induced by CHIR [3]	amount of Axin1 protein (Axin1 [4])	amount of Axin1 protein (Axin1 [5])	amount of Axin2 protein (Axin2 [6])	amount of Axin2 protein (Axin2 [7])
bovine serum albumin: bovine serum albumin	partially block						
O=C(Nc1cccc2cccnc12)c1ccc(N2C(=O)[C@@H]3[C@H](C2=O)[C@@H]2C=C[C@H]3C2)cc1 [IWR-1, 4-(1,3,3a,4,7,7a-Hexahydro-1,3-dioxo-4,7-methano-2H-isoindol-2-yl)-N-8-quinolinyl-Benzamide]		abolished this TOPFlash™ activity	blocked TOPFlash™ reporter activity induced by CHIR	significantly increased	significantly increased	significantly increased	significantly increased

Source: patent US20130273649A1, “Culture medium for pluripotent stem cells” (UNIVERSITY OF SOUTHERN CALIFORNIA, priority 2012, published 2013)
